Target: Mitogen-activated protein kinase kinase kinase 11 (Homo sapiens, UniProt Q16584)
Assay: Radiometric Filter Plate MLK3 Assay
Experimental: 200 ng (130 nM) MLK3 (Dundee, DU8313) was incubated with 1 μM inactive MKK7b (Dundee, DU703) in the presence of 2 μM cold ATP (Km) and 0.5 μCi/assay 33P ATP and appropriate concentrations of compounds. After a twenty minute incubation, the reactions were washed through filter plates and read on a scintillation counter.

Sequence of Mitogen-activated protein kinase kinase kinase 11 (Q16584 whole entry): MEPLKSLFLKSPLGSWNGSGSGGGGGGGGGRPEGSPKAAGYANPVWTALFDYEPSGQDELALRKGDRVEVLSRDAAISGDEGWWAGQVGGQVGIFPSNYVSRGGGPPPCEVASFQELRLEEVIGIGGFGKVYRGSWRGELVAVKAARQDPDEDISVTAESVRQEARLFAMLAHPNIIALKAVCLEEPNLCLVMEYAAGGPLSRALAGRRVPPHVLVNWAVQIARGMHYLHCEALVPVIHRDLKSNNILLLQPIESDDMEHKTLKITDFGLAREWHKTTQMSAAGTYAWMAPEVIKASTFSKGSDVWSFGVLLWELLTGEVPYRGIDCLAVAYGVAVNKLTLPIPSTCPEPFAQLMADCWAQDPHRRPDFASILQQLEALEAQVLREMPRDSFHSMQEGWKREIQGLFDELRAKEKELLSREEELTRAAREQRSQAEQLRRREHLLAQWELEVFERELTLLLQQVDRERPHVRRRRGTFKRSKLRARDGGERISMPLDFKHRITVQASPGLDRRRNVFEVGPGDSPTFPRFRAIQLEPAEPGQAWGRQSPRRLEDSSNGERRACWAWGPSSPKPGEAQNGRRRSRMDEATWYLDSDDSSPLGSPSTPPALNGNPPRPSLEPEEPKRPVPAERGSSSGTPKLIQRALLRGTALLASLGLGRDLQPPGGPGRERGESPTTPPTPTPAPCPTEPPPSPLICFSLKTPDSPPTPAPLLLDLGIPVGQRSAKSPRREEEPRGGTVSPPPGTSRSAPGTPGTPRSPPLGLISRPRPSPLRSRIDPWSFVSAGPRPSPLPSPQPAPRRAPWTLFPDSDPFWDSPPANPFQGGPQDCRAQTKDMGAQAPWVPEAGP

Structure (SMILES): CC(=O)N1CCN(C(=O)c2ccc(-c3cnc4[nH]cc(-c5ccc(C(N)=O)cc5)c4c3)cc2)CC1 [US10485800, Example 150]
- IC50: in the range around 550 nM
